Data: ChEMBL document CHEMBL1275392, “Assessment of chemoselective neoglycosylation methods using chlorambucil as a model” (2010)

Key:
Type in all cases: functional
[1] = tested on: BT-549; assay: Growth inhibition of human BT549 cells at 10 uM after 7 days by celltiter-glo assay; details: BT-549, 168 h, read-out: GI
[2] = Growth inhibition of human Hs 578T cells at 10 uM after 7 days by celltiter-glo assay; details: 168 h, read-out: GI
[3] = tested on: UO-31; assay: Growth inhibition of human UO31 cells at 10 uM after 7 days by celltiter-glo assay; details: UO-31, 168 h, read-out: GI
[4] = tested on: A498; assay: Growth inhibition of human A498 cells at 10 uM after 7 days by celltiter-glo assay; details: A498, 168 h, read-out: GI
[5] = tested on: OVCAR-5; assay: Growth inhibition of human OVCAR5 cells at 10 uM after 7 days by celltiter-glo assay; details: OVCAR-5, 168 h, read-out: GI
[6] = tested on: UACC-62; assay: Growth inhibition of human UACC62 cells at 10 uM after 7 days by celltiter-glo assay; details: UACC-62, 168 h, read-out: GI
[7] = tested on: SK-MEL-5; assay: Growth inhibition of human SK-MEL-5 cells at 10 uM after 7 days by celltiter-glo assay; details: SK-MEL-5, 168 h, read-out: GI
[8] = tested on: M14; assay: Growth inhibition of human M14 cells at 10 uM after 7 days by celltiter-glo assay; details: M14, 168 h, read-out: GI
[9] = tested on: LOX IMVI; assay: Growth inhibition of human LOXIMVI cells at 10 uM after 7 days by celltiter-glo assay; details: 168 h, read-out: GI
[10] = tested on: SF-295; assay: Growth inhibition of human SF295 cells at 10 uM after 7 days by celltiter-glo assay; details: SF-295, 168 h, read-out: GI
[11] = tested on: KM12; assay: Growth inhibition of human KM12 cells at 10 uM after 7 days by celltiter-glo assay; details: KM12, 168 h, read-out: GI
[12] = tested on: HT-29; assay: Growth inhibition of human HT-29 cells at 10 uM after 7 days by celltiter-glo assay; details: HT-29, 168 h, read-out: GI
[13] = tested on: NCI-H522; assay: Growth inhibition of human NCI-H522 cells at 10 uM after 7 days by celltiter-glo assay; details: NCI-H522, 168 h, read-out: GI
[14] = tested on: NCI-H322M; assay: Growth inhibition of human NCI-H322M cells at 10 uM after 7 days by celltiter-glo assay; details: 168 h, read-out: GI
[15] = tested on: NCI-H23; assay: Growth inhibition of human NCI-H23 cells at 10 uM after 7 days by celltiter-glo assay; details: NCI-H23, 168 h, read-out: GI
[16] = tested on: NCI-H226; assay: Growth inhibition of human NCI-H226 cells at 10 uM after 7 days by celltiter-glo assay; details: NCI-H226, 168 h, read-out: GI
[17] = tested on: SK-MEL-28; assay: Growth inhibition of human SK-MEL-28 cells after 7 days by celltiter-glo assay; details: SK-MEL-28, 168 h
[18] = tested on: NCI/ADR-RES; assay: Growth inhibition of human NCI/ADR-RES cells after 7 days by celltiter-glo assay; details: 168 h
[19] = tested on: CAKI-1; assay: Growth inhibition of human Caki1 cells after 7 days by celltiter-glo assay; details: CAKI-1, 168 h
[20] = tested on: SN12C; assay: Growth inhibition of human SN12C cells after 7 days by celltiter-glo assay; details: 168 h
[21] = tested on: TK-10; assay: Growth inhibition of human TK10 cells after 7 days by celltiter-glo assay; details: TK-10, 168 h
[22] = tested on: MDA-MB-468; assay: Growth inhibition of human MDA-MB-468 cells after 7 days by celltiter-glo assay; details: MDA-MB-468, 168 h
[23] = tested on: HCT-15; assay: Ratio of compound GI50 to chlorambucil GI50 for human HCT15 cells
[24] = tested on: MDA-MB-435; assay: Growth inhibition of human MDA-MB-435 cells after 7 days by celltiter-glo assay; details: MDA-MB-435, 168 h
[25] = tested on: HCT-15; assay: Growth inhibition of human HCT15 cells after 7 days by celltiter-glo assay; details: HCT-15, 168 h
[26] = tested on: EKVX; assay: Growth inhibition of human EKVX cells after 7 days by celltiter-glo assay; details: 168 h
[27] = tested on: A549; assay: Growth inhibition of human A549 cells after 7 days by celltiter-glo assay; details: A549, 168 h
[28] = tested on: MOLT-4; assay: Growth inhibition of human MOLT4 cells after 7 days by celltiter-glo assay; details: MOLT-4, 168 h

With `CON(CCCc1ccc(N(CCCl)CCCl)cc1)C1OC[C@@H](O)[C@@H]1O` (stereo partly drawn) as the compound, how does the inhibition of growth at 10 µM [1] read?
The inhibition of growth at 10 µM was 38.5%.

What about the inhibition of growth at 10 µM [2] of the same compound?
The inhibition of growth at 10 µM was 139%.

What about the inhibition of growth at 10 µM [3] of the same compound?
Its inhibition of growth at 10 µM is 54.4%.

And the inhibition of growth at 10 µM [4]?
The inhibition of growth at 10 µM was 114%.

And the inhibition of growth at 10 µM [5]?
The inhibition of growth at 10 µM was 111%.

And the inhibition of growth at 10 µM [6]?
The inhibition of growth at 10 µM was 52.1%.

And the inhibition of growth at 10 µM [7]?
The inhibition of growth at 10 µM was 79%.

And the inhibition of growth at 10 µM [8]?
Its inhibition of growth at 10 µM is 67.2%.

And the inhibition of growth at 10 µM [9]?
Its inhibition of growth at 10 µM is 54.8%.

And the inhibition of growth at 10 µM [10]?
The inhibition of growth at 10 µM was 56.6%.

What about the inhibition of growth at 10 µM [11] of the same compound?
Its inhibition of growth at 10 µM is 97.6%.

And the inhibition of growth at 10 µM [12]?
The inhibition of growth at 10 µM was 70.7%.

What about the inhibition of growth at 10 µM [13] of the same compound?
Its inhibition of growth at 10 µM is 52.4%.

And the inhibition of growth at 10 µM [14]?
Its inhibition of growth at 10 µM is 99%.

What about the inhibition of growth at 10 µM [15] of the same compound?
Its inhibition of growth at 10 µM is 54.4%.

And the inhibition of growth at 10 µM [16]?
The inhibition of growth at 10 µM was 84.2%.

What about the GI50 [17] of the same compound?
The GI50 was 36.5 µM.

What about the GI50 [18] of the same compound?
The GI50 was 4.61 µM.

What about the GI50 [19] of the same compound?
Its GI50 is 11.5 µM.

What about the GI50 [20] of the same compound?
Its GI50 is 7.06 µM.

And the GI50 [21]?
The GI50 was 31.7 µM.

What about the GI50 [22] of the same compound?
Its GI50 is 7.25 µM.

And the RatioGI50 [23]?
The RatioGI50 was 15.

What about the GI50 [24] of the same compound?
The GI50 was 21.1 µM.

And the GI50 [25]?
Its GI50 is 530 nM.

And the GI50 [26]?
The GI50 was 37.9 µM.

And the GI50 [27]?
The GI50 was 12.2 µM.

And the GI50 [28]?
Its GI50 is 1220 nM.
